Patent US20100298384A1, “NOVEL OXAZOLIDINONE COMPOUNDS AS ANTIINFECTIVE AGENTS” (priority 2006, published 2010)

Structure (SMILES) | melting point [°C]
CC(=O)NC[C@H]1CN(c2ccc(-c3csc(Cn4cncn4)n3)c(F)c2)C(=O)O1 (stereo in doubt) [Example 14, N-{3-[3-fluoro-4-(2[1,2,4]triazol-1-ylmethyl-thiazol-4-yl)-phenyl]-2-oxo-oxazolidin-5-ylmethyl}-acetamide] | 154 to 156
CC(=O)NC[C@H]1CN(c2ccc(-c3csc(Cn4ccnc4)n3)c(F)c2)C(=O)O1 (stereo in doubt) [Example 16, N-{3-[3-Fluoro-4-(2-imidazol-1-ylmethyl-thiazol-4-yl)-phenyl]-2-oxo-oxazolidin-5-ylmethyl}-acetamide] | 154 to 156
CC(=O)NC[C@H]1CN(c2ccc(-n3cnc(Cn4ccnc4)c3)c(F)c2)C(=O)O1 (stereo in doubt) [Example 24, N-{3-[3-fluoro-4-(4-imidazol-1-ylmethyl-imidazol-1-yl)-phenyl]-2-oxo-oxazolidin-5-ylmethyl}-acetamide] | 180 to 182
CC(=O)NC[C@H]1CN(c2ccc(-n3cnc(Cn4cncn4)c3)c(F)c2)C(=O)O1 (stereo in doubt) [Example 26, N-{3-[3-fluoro-4-(4-[1,2,4]triazol-1-ylmethyl-imidazol-1-yl)-phenyl]-2-oxo-oxazolidin-5-ylmethyl}-acetamide] | 171 to 173
CC(=O)NC[C@H]1CN(c2ccc(-n3cnc(Cn4cccn4)c3)c(F)c2)C(=O)O1 (stereo in doubt) [Example 26, N-{3-[3-fluoro-4-(4-pyrazol-1-ylmethyl-imidazol-1-yl)-phenyl]-2-oxo-oxazolidin-5-ylmethyl}-acetamide] | 158 to 160
CC(=O)NC[C@H]1CN(c2ccc(-c3nc(Cn4ccnc4)co3)c(F)c2)C(=O)O1 [Example 6, N-{3-[3-fluoro-4-(4-imidazol-1-ylmethyl-oxazol-2-yl)-phenyl]-2-oxo-oxazolidin-5(S)-ylmethyl}-acetamide] | 198 to 200
CC(=O)NC[C@H]1CN(c2ccc(-c3nc(Cn4ccnc4)cs3)c(F)c2)C(=O)O1 [Example 10, N-{3-[3-fluoro-4-(4-imidazol-1-ylmethyl-thiazol-2-yl)-phenyl]-2-oxo-oxazolidin-5(S)-ylmethyl}-acetamide] | 192 to 194
CC(=O)NC[C@H]1CN(c2ccc(-c3nc(Cn4cncn4)cs3)c(F)c2)C(=O)O1 [Example 11, N-{3-[3-fluoro-4-(4-[1,2,4]triazol-1-ylmethyl-thiazol-2-yl)-phenyl]-2-oxo-oxazolidin-5(S)-ylmethyl}-acetamide] | 196 to 198
CC(=O)NC[C@H]1CN(c2ccc(-c3nc(Cn4cccn4)cs3)c(F)c2)C(=O)O1 [Example 12, N-{3-[3-fluoro-4-(4-pyrazol-1-ylmethyl-thiazol-2-yl)-phenyl]-2-oxo-oxazolidin-5(S)-ylmethyl}-acetamide] | 178 to 180
CC(=O)NC[C@H]1CN(c2ccc(-n3cc(Cn4ccnc4)cn3)c(F)c2)C(=O)O1 [Example 18, N-{3-[3-fluoro-4-(4-imidazol-1-ylmethyl-pyrazol-1-yl)phenyl]-2-oxo-oxazolidin-5-(8)-ylmethyl}-acetamide] | 171 to 172
CC(=O)NC[C@H]1CN(c2ccc(-n3cc(Cn4cccn4)cn3)c(F)c2)C(=O)O1 [Example 20, N-{3-[3-fluoro-4-(4-pyrazol-1-ylmethyl-pyrazol-1-yl)-phenyl]-2-oxo-oxazolidin-5-(S)-ylmethyl}-acetamide] | 186 to 187
CC(=O)NC[C@H]1CN(c2ccc(-n3cc(Cn4cncn4)cn3)c(F)c2)C(=O)O1 [Example 22, N-{3-[3-fluoro-4-(4-[1,2,4]triazol-1-ylmethyl-pyrazol-1-yl)-phenyl]-2-oxo-oxazolidin-5(S)-ylmethyl}-acetamide] | 126 to 127
CC(=O)NC[C@H]1CN(c2ccc(-n3cc(Cn4ccc(C(F)(F)F)n4)nn3)c(F)c2)C(=O)O1 [Example 32] | 130 to 140
COC(=O)NC[C@H]1CN(c2ccc(-c3nc(Cn4ccnc4)cs3)c(F)c2)C(=O)O1 [Example 33] | 165 to 167
COC(=O)NC[C@H]1CN(c2ccc(-c3nc(Cn4cccn4)co3)c(F)c2)C(=O)O1 [Example 34, Methyl {3-[3-fluoro-4-(4-pyrazol-1-ylmethyl-oxazol-2-yl)-phenyl]-2-oxo-oxazolidin-5(S)-ylmethyl}-carbamate] | 170 to 172
COC(=O)NC[C@H]1CN(c2ccc(-n3cnc(Cn4cncn4)c3)c(F)c2)C(=O)O1 [Example 45, Methyl {3-[3-fluoro-4-(4-[1,2,4]-triazol-1-ylmethyl-imidazol-1-yl)-phenyl]-2-oxo-oxazolidin-5-ylmethyl}-carbamate] | 184 to 186
COC(=S)NC[C@H]1CN(c2ccc(-c3nc(Cn4cccn4)co3)c(F)c2)C(=O)O1 [Example 50, O-methyl {3-[3-fluoro-4-(4-pyrazol-1-ylmethyl-oxazol-2-yl)-phenyl]-2-oxo-oxazolidin-5(S)-ylmethyl}-thiocarbamate] | 145 to 147
CC(=S)NC[C@H]1CN(c2ccc(-c3csc(Cn4cncn4)n3)c(F)c2)C(=O)O1 [Example 63, N-{3-[3-Fluoro-4-(2[1,2,4]-triazol-1-ylmethyl-thiazol-4-yl)-phenyl]-2-oxo-oxazolidin-5-ylmethyl}-thioacetamide] | 82 to 84
CC(=S)NC[C@H]1CN(c2ccc(-n3cnc(Cn4cncn4)c3)c(F)c2)C(=O)O1 [Example 67, N-{3-[3-fluoro-4-(4-[1,2,4]triazol-1-ylmethyl-imidazol-1-yl)-phenyl]-2-oxo-oxazolidin-5-ylmethyl}-thioacetamide] | 171 to 173

Second part, the compound after the results:

melting point [°C] | Structure (SMILES)
78 to 80 | COC(=O)NC[C@H]1CN(c2ccc(-n3cnc(Cn4ccnc4)c3)c(F)c2)C(=O)O1 (stereo in doubt) [Example 43, Methyl {3-[3-fluoro-4-(4-imidazol-1-ylmethyl-imidazol-1-yl)-phenyl]-2-oxo-oxazolidin-5-ylmethyl}-carbamate]
98 to 100 | CCOC(=O)c1cn(Cc2cn(-c3ccc(N4C[C@H](CNC(=O)OC)OC4=O)cc3F)nn2)nc1N (stereo in doubt) [Example 47, Ethyl 3-amino-1-(1-{2-fluoro-4-[5-(methoxycarbonylamino-methyl)-2-oxo-oxazolidin-3-yl]-phenyl}-1H-[1,2,3]triazol-4-ylmethyl)-1H-pyrazole-4-carboxylate]
160 to 162 | CC(=S)NC[C@H]1CN(c2ccc(-n3cnc(Cn4ccnc4)c3)c(F)c2)C(=O)O1 (stereo in doubt) [Example 65, N-{3-[3-fluoro-4-(4-imidazol-1-ylmethyl-imidazol-1-yl)-phenyl]-2-oxo-oxazolidin-5-ylmethyl}-thioacetamide]
137 to 139 | CC(=S)NC[C@H]1CN(c2ccc(-n3cnc(Cn4cccn4)c3)c(F)c2)C(=O)O1 (stereo in doubt) [Example 66, N-{3-[3-fluoro-4-(4-pyrazol-1-ylmethyl-imidazol-1-yl)-phenyl]-2-oxo-oxazolidin-5-ylmethyl}-thioacetamide]
199 to 201 | COC(=O)NC[C@H]1CN(c2ccc(-c3nc(Cn4cncn4)cs3)c(F)c2)C(=O)O1 [Example 35, Methyl {3-[3-fluoro-4-(4-[1,2,4]triazol-1-ylmethyl-thiazol-2-yl)-phenyl]-2-oxo-oxazolidin-5(S)-ylmethyl}-carbamate]
142 to 144 | COC(=O)NC[C@H]1CN(c2ccc(-c3nc(Cn4cccn4)cs3)c(F)c2)C(=O)O1 [Example 36, Methyl {3-[3-fluoro-4-(4-pyrazol-1-ylmethyl-thiazol-2-yl)-phenyl]-2-oxo-oxazolidin-5(S)-ylmethyl}-carbamate]
170 | COC(=O)NC[C@H]1CN(c2ccc(-n3cc(Cn4cncn4)nn3)c(F)c2)C(=O)O1 [Example 48]
129 to 130 | COC(=O)NC[C@H]1CN(c2ccc(-n3cc(Cn4ccc(C(F)(F)F)n4)nn3)c(F)c2)C(=O)O1 [Example 49]
169 to 171 | COC(=S)NC[C@H]1CN(c2ccc(-c3nc(Cn4ccnc4)cs3)c(F)c2)C(=O)O1 [Example 51, O-methyl {3-[3-fluoro-4-(4-imidazol-1-ylmethyl-thiazol-2-yl)-phenyl]-2-oxo-oxazolidin-5(S)-ylmethyl}-thiocarbamate]
189 to 191 | COC(=S)NC[C@H]1CN(c2ccc(-c3nc(Cn4cncn4)cs3)c(F)c2)C(=O)O1 [Example 52, O-methyl {3-[3-fluoro-4-(4-[1,2,4]triazol-1-ylmethyl-thiazol-2-yl)-phenyl]-2-oxo-oxazolidin-5(S)-ylmethyl}-thiocarbamate]
157 to 158 | COC(=S)NC[C@H]1CN(c2ccc(-c3nc(Cn4cccn4)cs3)c(F)c2)C(=O)O1 [Example 53, O-methyl {3-[3-fluoro-4-(4-pyrazol-1-ylmethyl-thiazol-2-yl)-phenyl]-2-oxo-oxazolidin-5(S)-ylmethyl}-thiocarbamate]
179 to 180 | COC(=S)NC[C@H]1CN(c2ccc(-n3cc(Cn4ccc(C(F)(F)F)n4)nn3)c(F)c2)C(=O)O1 [Example 59]
169 to 171 | CC(=S)NC[C@H]1CN(c2ccc(-c3nc(Cn4ccnc4)cs3)c(F)c2)C(=O)O1 [Example 60, N-{3-[3-fluoro-4-(4-imidazol-1-ylmethyl-thiazol-2-yl)-phenyl]-2-oxo-oxazolidin-5(S)-ylmethyl}-thioacetamide]
180 to 182 | CC(=S)NC[C@H]1CN(c2ccc(-c3nc(Cn4cncn4)cs3)c(F)c2)C(=O)O1 [Example 61, N-{3-[3-fluoro-4-(4-[1,2,4]triazol-1-ylmethyl-thiazol-2-yl)-phenyl]-2-oxo-oxazolidin-5(S)-ylmethyl}-thioacetamide]
166 to 168 | CC(=S)NC[C@H]1CN(c2ccc(-c3nc(Cn4cccn4)cs3)c(F)c2)C(=O)O1 [Example 62, N-{3-[3-fluoro-4-(4-pyrazole-1-ylmethyl-thiazol-2-yl)-phenyl]-2-oxo-oxazolidin-5(S)-ylmethyl}-thioacetamide]
